This is an account of results in patent publication US12685735B2 (Foghorn Therapeutics Inc., priority 2020, dated 2026).

Where two headings read alike, the source gives them in different places.

In one experiment the target is BRM (Homo sapiens, UniProt P51531). Briefly: ATPase catalytic activity assay of BRM (ADP-Glo). The class given is biochemical. The settings on record: for IC50: read-out: BRM IC50 (μM)*. In short, it runs like this: (§1)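 ATPase activity of BRG-1 or BRM was read by ADP-Glo. Residual ATP was depleted (40 min, room temperature), then ADP was converted to ATP (60 min, room temperature) and measured as luciferase luminescence.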
BRM, sequence (P51531 whole entry): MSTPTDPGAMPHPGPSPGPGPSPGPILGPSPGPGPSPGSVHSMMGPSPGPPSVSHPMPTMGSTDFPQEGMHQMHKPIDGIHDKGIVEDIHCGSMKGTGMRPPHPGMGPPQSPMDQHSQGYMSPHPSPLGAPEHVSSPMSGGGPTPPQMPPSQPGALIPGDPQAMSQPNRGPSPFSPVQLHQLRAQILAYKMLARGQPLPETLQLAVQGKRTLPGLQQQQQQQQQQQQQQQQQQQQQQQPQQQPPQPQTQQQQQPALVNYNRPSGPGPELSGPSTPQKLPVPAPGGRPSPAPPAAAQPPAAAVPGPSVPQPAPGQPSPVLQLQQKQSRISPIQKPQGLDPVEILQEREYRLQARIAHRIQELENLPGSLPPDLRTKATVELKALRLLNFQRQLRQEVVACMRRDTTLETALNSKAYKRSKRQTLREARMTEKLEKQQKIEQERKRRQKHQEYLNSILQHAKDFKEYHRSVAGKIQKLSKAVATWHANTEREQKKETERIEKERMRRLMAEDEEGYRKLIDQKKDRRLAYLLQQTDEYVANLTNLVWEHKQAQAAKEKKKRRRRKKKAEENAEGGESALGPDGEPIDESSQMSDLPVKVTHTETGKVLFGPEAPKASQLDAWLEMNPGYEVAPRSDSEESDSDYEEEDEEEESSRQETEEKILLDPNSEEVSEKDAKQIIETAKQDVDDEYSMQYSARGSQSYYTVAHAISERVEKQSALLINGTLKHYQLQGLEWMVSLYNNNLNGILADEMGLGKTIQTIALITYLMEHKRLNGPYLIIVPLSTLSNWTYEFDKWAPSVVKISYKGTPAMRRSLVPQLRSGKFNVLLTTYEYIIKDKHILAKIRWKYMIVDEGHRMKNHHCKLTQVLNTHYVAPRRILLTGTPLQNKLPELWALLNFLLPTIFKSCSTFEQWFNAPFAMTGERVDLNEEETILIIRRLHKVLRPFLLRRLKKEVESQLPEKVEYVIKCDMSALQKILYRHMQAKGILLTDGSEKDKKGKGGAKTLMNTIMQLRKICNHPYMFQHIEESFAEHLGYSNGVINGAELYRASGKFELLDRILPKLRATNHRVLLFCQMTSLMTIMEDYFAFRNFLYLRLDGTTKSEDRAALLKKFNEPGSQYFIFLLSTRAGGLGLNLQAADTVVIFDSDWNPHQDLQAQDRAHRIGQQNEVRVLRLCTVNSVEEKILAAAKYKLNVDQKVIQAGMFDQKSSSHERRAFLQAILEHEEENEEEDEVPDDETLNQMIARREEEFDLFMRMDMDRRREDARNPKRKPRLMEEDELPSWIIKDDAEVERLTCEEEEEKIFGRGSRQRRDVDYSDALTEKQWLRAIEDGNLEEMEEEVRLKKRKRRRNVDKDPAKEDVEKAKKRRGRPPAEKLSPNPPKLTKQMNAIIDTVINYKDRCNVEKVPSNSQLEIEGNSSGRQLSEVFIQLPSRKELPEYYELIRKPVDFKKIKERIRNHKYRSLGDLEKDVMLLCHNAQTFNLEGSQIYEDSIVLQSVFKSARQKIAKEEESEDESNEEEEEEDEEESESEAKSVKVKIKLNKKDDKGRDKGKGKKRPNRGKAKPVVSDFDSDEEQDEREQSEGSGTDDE
On the technique in general: ADP-Glo turns the ADP formed in a reaction into a luminescent signal.

A further experiment addresses BRG-1 (Homo sapiens, UniProt P51532). Briefly: ATPase catalytic activity assay of BRG-1 (ADP-Glo). It is filed as biochemical. The following applies: ATPase catalytic activity, ADP-Glo; for IC50: read-out: BRG1 IC50 (μM)*; for Emax: read-out: BRG1 Max % Inhibition. The gist of the method: as §1

BRG-1, sequence (P51532 whole entry): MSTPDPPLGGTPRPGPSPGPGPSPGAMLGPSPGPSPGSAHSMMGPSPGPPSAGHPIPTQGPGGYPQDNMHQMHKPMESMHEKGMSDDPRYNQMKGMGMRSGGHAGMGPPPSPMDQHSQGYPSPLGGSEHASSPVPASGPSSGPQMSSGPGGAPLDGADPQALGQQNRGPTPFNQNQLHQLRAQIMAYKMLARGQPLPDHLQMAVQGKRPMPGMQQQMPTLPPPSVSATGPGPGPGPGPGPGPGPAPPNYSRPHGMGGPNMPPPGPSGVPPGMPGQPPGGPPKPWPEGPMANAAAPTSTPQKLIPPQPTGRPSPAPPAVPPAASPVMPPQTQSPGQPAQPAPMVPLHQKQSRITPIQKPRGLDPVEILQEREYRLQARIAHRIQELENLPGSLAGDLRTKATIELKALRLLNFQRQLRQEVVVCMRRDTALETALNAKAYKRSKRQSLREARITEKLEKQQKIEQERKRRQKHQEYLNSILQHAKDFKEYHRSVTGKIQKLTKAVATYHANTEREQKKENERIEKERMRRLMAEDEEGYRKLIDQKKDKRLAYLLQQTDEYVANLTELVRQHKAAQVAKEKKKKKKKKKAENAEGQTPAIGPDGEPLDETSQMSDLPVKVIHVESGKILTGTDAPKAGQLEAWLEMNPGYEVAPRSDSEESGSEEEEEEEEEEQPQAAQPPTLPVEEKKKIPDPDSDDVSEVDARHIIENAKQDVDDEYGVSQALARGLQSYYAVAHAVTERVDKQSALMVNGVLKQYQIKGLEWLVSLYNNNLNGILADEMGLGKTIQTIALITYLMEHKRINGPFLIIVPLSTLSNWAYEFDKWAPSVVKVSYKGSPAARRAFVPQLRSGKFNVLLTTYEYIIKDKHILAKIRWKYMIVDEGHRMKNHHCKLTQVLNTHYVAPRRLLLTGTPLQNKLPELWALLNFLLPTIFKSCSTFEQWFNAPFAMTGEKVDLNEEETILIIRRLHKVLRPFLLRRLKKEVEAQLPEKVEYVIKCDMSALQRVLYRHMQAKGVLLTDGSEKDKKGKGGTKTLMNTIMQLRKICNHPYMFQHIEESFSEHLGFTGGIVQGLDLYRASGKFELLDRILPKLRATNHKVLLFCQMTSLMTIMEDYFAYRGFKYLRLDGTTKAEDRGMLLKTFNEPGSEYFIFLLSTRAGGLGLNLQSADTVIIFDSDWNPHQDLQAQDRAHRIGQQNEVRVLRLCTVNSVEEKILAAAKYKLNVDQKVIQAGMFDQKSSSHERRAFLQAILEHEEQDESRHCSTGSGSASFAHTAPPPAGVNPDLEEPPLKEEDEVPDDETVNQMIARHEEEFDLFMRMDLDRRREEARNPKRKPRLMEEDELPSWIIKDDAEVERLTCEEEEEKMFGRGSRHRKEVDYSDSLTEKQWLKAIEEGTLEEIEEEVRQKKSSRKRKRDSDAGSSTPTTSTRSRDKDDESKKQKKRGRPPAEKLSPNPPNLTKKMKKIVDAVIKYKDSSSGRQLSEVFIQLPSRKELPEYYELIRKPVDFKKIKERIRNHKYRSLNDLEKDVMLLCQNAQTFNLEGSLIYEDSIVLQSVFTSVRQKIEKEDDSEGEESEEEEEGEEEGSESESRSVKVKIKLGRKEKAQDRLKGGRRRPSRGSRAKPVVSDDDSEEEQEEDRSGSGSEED

On to `Cn1cnc2ccc(-c3csc(NC(=O)CNC(=O)c4ccc5c(c4)[C@](C)(CO)CC5)n3)cc21` [Compound 175, (R)-3-(hydroxymethyl)-3-methyl-N-(2-((4-(1-methyl-1H-benzo[d]imidazol-6-yl)thiazol-2-yl)amino)-2-oxoethyl)-2,3-dihydro-1H-indene-5-carboxamide], for which, at BRM, the “BRM Max % Inhibition” value was above 90% and the IC50 – broadly, the point on the concentration scale where inhibition reaches its midpoint – was 0.1 to 1 µM. Moreover, on BRG-1, the IC50 was in the range of 1 to 5 µM and the Emax is above 60%.
For `C[C@@H]1CN(c2cccc(-c3csc(NC(=O)CNC(=O)c4ccc5c(c4)[C@]4(CCC[C@H]4O)CC5)n3)c2)C[C@H](C)O1` [Compound 256, (1S,2R)-N-(2-((4-(3-((cis)-2,6-dimethylmorpholino)phenyl)thiazol-2-yl)amino)-2-oxoethyl)-2-hydroxy-2′,3′-dihydrospiro[cyclopentane-1,1′-indene]-6′-carboxamide], in that order: above 60%, 1 to 5 µM, above 5 µM and below 30%.
The matching figures for `Cc1ccc(C(=O)NCC(=O)Nc2nc(-c3cccc(N4C[C@@H](C)O[C@@H](C)C4)c3)cs2)cc1C(C)(C)CO` [Compound 238, N-(2-((4-(3-((cis)-2,6-dimethylmorpholino)phenyl)thiazol-2-yl)amino)-2-oxoethyl)-3-(1-hydroxy-2-methylpropan-2-yl)-4-methylbenzamide]: above 95%, below 0.1 µM, 0.1 to 1 µM and above 90%.
Take `CC1(C#N)CCOc2ccc(C(=O)NCC(=O)Nc3nc(-c4cccc(C5(F)COC5)c4)cs3)cc21` (stereo in doubt) [Compound 422, (S)-4-cyano-N-(2-((4-(3-(3-fluorooxetan-3-yl)phenyl)thiazol-2-yl)amino)-2-oxoethyl)-4-methylchromane-6-carboxamide]: on BRM (30 nM BRM, 400 μM ATP), the “BRM Max % Inhibition” value is reported as above 95% and the IC50 lay within 0.1 to 1 µM. At BRG-1 (30 nM BRG-1, 400 μM ATP), the IC50 was 1 to 5 µM and the Emax is above 95%.
On to `C[C@@]1(C#N)COCc2ccc(C(=O)NCC(=O)Nc3nc(-c4cccc(N5CC6(CCO6)C5)c4)cs3)cc21` [Compound 348, (R)-N-(2-((4-(3-(1-oxa-6-azaspiro[3.3]heptan-6-yl)phenyl)thiazol-2-yl)amino)-2-oxoethyl)-4-cyano-4-methylisochromane-6-carboxamide], for which, on BRM, the “BRM Max % Inhibition” value is listed as above 95% and the IC50 is below 0.1 µM. Besides, on BRG-1, the IC50 lay in the range of 0.1 to 1 µM and the Emax was above 95%.
With `COc1cccc(-c2csc(NC(=O)CNC(=O)c3ccc4c(c3)C(C)(F)CCCO4)n2)c1` (stereo in doubt) [Compound 324, (S)-5-fluoro-N-(2-((4-(3-methoxyphenyl)thiazol-2-yl)amino)-2-oxoethyl)-5-methyl-2,3,4,5-tetrahydrobenzo[b]oxepine-7-carboxamide], on BRM, the “BRM Max % Inhibition” value is recorded as above 90% and the IC50 was in the range of 0.1 to 1 µM. For the same molecule, on BRG-1, the IC50 lay within 0.1 to 1 µM and the Emax is above 90%.
`Cc1ccc(C(=O)NCC(=O)Nc2nc(-c3cccc(N4C[C@@H](C)O[C@@H](C)C4)n3)cs2)cc1C(C)(C)CO` [Compound 237, N-(2-((4-(6-((cis)-2,6-dimethylmorpholino)pyridin-2-yl)thiazol-2-yl)amino)-2-oxoethyl)-3-(1-hydroxy-2-methylpropan-2-yl)-4-methylbenzamide]: on BRM, the “BRM Max % Inhibition” value is above 95% and the IC50 was below 0.1 µM. Further, at BRG-1, the IC50 was in the range of 0.1 to 1 µM and the Emax was above 90%.
The matching figures for `CC(C)(CN)c1cccc(C(=O)NCC(=O)Nc2nc(-c3cccc(-c4cc(Cl)cc(Cl)c4)c3)cs2)c1` [Compound 51, 3-(1-amino-2-methylpropan-2-yl)-N-(2-((4-(3′,5′-dichloro-[1,1′-biphenyl]-3-yl)thiazol-2-yl)amino)-2-oxoethyl)benzamide]: above 80%, 0.1 to 1 µM, above 5 µM and above 50%.
The matching figures for `CN1C(=O)CCc2ccc(-c3csc(NC(=O)CNC(=O)c4ccc5c(c4)[C@@](C)(CO)CC5)n3)cc21` [Compound 260, (S)-3-(hydroxymethyl)-3-methyl-N-(2-((4-(1-methyl-2-oxo-1,2,3,4-tetrahydroquinolin-7-yl)thiazol-2-yl)amino)-2-oxoethyl)-2,3-dihydro-1H-indene-5-carboxamide]: above 60%, 1 to 5 µM, above 5 µM and above 30%.
In the case of `CC1(C#N)CCc2ccc(C(=O)NCC(=O)Nc3nc(-c4cccc(-c5ccncc5)c4)cs3)cc21` (single isomer, unassigned) [Compound 103], at BRM, the “BRM Max % Inhibition” value is recorded as above 95% and the IC50 was below 0.1 µM. For the same molecule, on BRG-1, the “BRG1 Max % Inhibition” value was above 95% and the concentration for half-maximal inhibition (IC50) is below 0.1 µM.
`CCC(C)(O)c1cccc(C(=O)NCC(=O)Nc2nc(-c3cccc(-c4ccncc4)c3)cs2)c1` (single isomer, unassigned) [Compound 80]: on BRM, the “BRM Max % Inhibition” value was above 90% and the IC50 lay within 1 to 5 µM. Also, on BRG-1, the IC50 was 0.1 to 1 µM and the Emax is above 80%.
For `C[C@@H]1CN(c2cc(F)cc(-c3csc(NC(=O)CNC(=O)c4ccc(F)c(C(C)(C)CO)c4)n3)c2)C[C@H](C)O1` [Compound 198, N-(2-((4-(3-((cis)-2,6-dimethylmorpholino)-5-fluorophenyl)thiazol-2-yl)amino)-2-oxoethyl)-4-fluoro-3-(1-hydroxy-2-methylpropan-2-yl)benzamide], on BRM, the “BRM Max % Inhibition” value is given as above 95% and the IC50 is below 0.1 µM. In addition, on BRG-1, the IC50 was in the range of 0.1 to 1 µM and the Emax is above 95%.
The matching figures for `C[C@@]1(C#N)COCc2ccc(C(=O)NCC(=O)Nc3nc(-c4ccccc4)cs3)cc21` [Compound 323, (R)-4-cyano-4-methyl-N-(2-oxo-2-((4-phenylthiazol-2-yl)amino)ethyl)isochromane-6-carboxamide]: above 95%, below 0.1 µM, 0.1 to 1 µM and above 95%.
For `C[C@@]1(C#N)COCc2ccc(C(=O)NCC(=O)Nc3nc(-c4cccc([C@]56CCOC[C@H]5C6)n4)cs3)cc21` [Compound 293, (R)-N-(2-((4-(6-((1S,6R)-3-oxabicyclo[4.1.0]heptan-6-yl)pyridin-2-yl)thiazol-2-yl)amino)-2-oxoethyl)-4-cyano-4-methylisochromane-6-carboxamide], in that order: above 95%, below 0.1 µM, 0.1 to 1 µM and above 95%.
For `C[C@@H]1CN(c2cccc(-c3csc(NC(=O)CNC(=O)c4ccc5c(c4)[C@](F)(C#N)COC5)n3)n2)C[C@H](C)O1` (single isomer, unassigned) [Compound 298], in that order: above 95%, 0.1 to 1 µM, 1 to 5 µM and above 95%.
Consider `CC(C)S(=O)(=O)c1cccc(C(=O)NCC(=O)Nc2nc(-c3cccc(-c4cccc(C#N)n4)n3)cs2)c1` [Compound 118, N-[2-[[4-[6-(6-cyano-2-pyridyl)-2-pyridyl]thiazol-2-yl]amino]-2-oxo-ethyl]-3-isopropylsulfonyl-benzamide], for which, at BRM, the “BRM Max % Inhibition” value is given as above 70% and the IC50 fell in the range of 0.1 to 1 µM. Further, on BRG-1, the IC50 was above 5 µM and the Emax was below 30%.
The matching figures for `Cc1nccc(-c2cccc(-c3csc(NC(=O)CNC(=O)c4ccc5c(c4)[C@](C)(CO)CCC5)n3)n2)n1` [Compound 212, (4R)-4-(hydroxymethyl)-4-methyl-N-[2-[[4-[6-(2-methylpyrimidin-4-yl)-2-pyridyl]thiazol-2-yl]amino]-2-oxo-ethyl]tetralin-6-carboxamide]: above 70%, 0.1 to 1 µM, above 5 µM and below 30%.
As to `COc1cc(-c2cccc(-c3csc(NC(=O)CNC(=O)c4cccc(S(=O)(=O)C(C)C)c4)n3)c2)ccn1` [Compound 29, 3-(isopropylsulfonyl)-N-(2-((4-(3-(2-methoxypyridin-4-yl)phenyl)thiazol-2-yl)amino)-2-oxoethyl)benzamide], on BRM, the “BRM Max % Inhibition” value is on record as above 90% and the IC50 fell in the range of 0.1 to 1 µM. In addition, the IC50 on BRG-1 is 0.1 to 1 µM.
Regarding `CC(C)(N)c1cccc(C(=O)NCC(=O)Nc2nc(-c3cccc(-c4ccncc4)c3)cs2)c1` [Compound 86, 3-(2-aminopropan-2-yl)-N-(2-oxo-2-((4-(3-(pyridin-4-yl)phenyl)thiazol-2-yl)amino)ethyl)benzamide], on BRM, the “BRM Max % Inhibition” value is above 80% and the IC50 was above 5 µM. On BRG-1, the IC50 lay within 1 to 5 µM and the Emax was above 60%.
For `C[C@@H]1CN(c2cccc(-c3csc(NC(=O)CNC(=O)c4ccc5c(c4)S(=O)(=O)CCC5)n3)c2)C[C@H](C)O1` [Compound 396, N-(2-((4-(3-((cis)-2,6-dimethylmorpholino)phenyl)thiazol-2-yl)amino)-2-oxoethyl)thiochromane-7-carboxamide 1,1-dioxide], in that order: above 90%, 0.1 to 1 µM, 1 to 5 µM and above 90%.
